# Assay results from US11985974B2, “Antimicrobial ferulic acid derivatives and uses thereof” (WISCONSIN ALUMNI RESEARCH FOUNDATION, priority 2014, dated 2024).
# Columns and labels:
# [1] = system: poacic acid-resistant mutant (SUR1); experiment: Poacic acid-resistant mutant (PAr) with SNP in SUR1; format: cell-based, Saccharomyces cerevisiae
# Experimental: Agar containing 500 μg/mL poacic acid was inoculated with ˜1 million cells of yeast (control strain). After 1 wk, two colonies were found growing on the agar. Single-colony isolates were obtained and found to be resistant to poacic acid. For whole-genome sequencing, single-colony isolates of poacic acid-resistant mutant, the caspofungin-resistant mutant, and the control strain (WT) were grown in triplicate 200-μL cultures and pooled for genomic DNA extraction (Epicentre MasterPure Yeast Kit; MPY80200). The genomic DNA was prepared for Illumina whole-genome sequencing using the Illumina TruSeqKkit (FC-121-3001) and sequenced by 150-bp paired-end reads on the MiSeq platform.
# To determine mutations in the drug-resistant mutants, read quality analysis was performed using FastQC (www.bioinformatics.babraharm.ac.uk/projects/fastqc/). Short reads were examined for quality and trimmed at the 3′ end when average base quality in a 3-nt window fell below Q30. Short reads were mapped to the standard S. cerevisiae reference genome, strain S288c (obtained from the National Center for Biotechnology Information RefSeq repository), using Burrows-Wheeler Alignment (BWA version 0.6.2) (Li et al. 2009) using the default parameters, with the exception of the fraction of missing alignments threshold, which was set at 0.08 (−n in bwa aln). […]
# [2] = system: S. cerevisiae (BY4741 his3Δ::KanMX); experiment: Multivariate morphological analysis (CalMorph); format: cell-based, Saccharomyces cerevisiae
# Experimental: Cells of budding yeast S. cerevisiae (BY4741 his3Δ::KanMX; hereafter, his3Δ) were cultured in 2 mL 1% Bacto yeast extract (BD Biosciences), 2% Bacto peptone (BD Biosciences), and 2% glucose (YPD) with 0, 25, 50, 75, 100, or 125 μg/mL poacic acid or a DMSO control at 25° C. for 16 h until the early log phase. The maximum concentration of the drug (125 μg/mL) was determined based on the growth inhibition rates (10%). Cell fixation, staining, and observation were performed (n=5) as described previously (Ohya et al. 2005). Images of cell shape, actin, and nuclear DNA were analyzed using the image processing software CalMorph (version 1.2), which extracted a total of 501 morphological quantitative values from at least 200 individual cells in each experiment (Ohya et al. 2005). Images were processed using Photoshop CS2 (Adobe Systems) for illustrative purposes.
# To assess the morphological similarity between the cells treated with poacic acid and nonessential deletion mutants or cells treated with other cell wall-affecting drugs, their morphological profiles were compared as described previously (Ohnuki et al. 2010). To identify functional gene clusters, the most significant similar mutants (43 genes, P<0.01 after Bonferroni correction, t test) were selected as a query for GO term analysis (GO term finder in the Saccharomyces genome database).
# To extract independent and characteristic features of morphology induced by poacic acid, a two-step principal component analysis was performed as described previously (Ohnuki et al. 2012). To compare phenotypic noise in the yeast population (poacic acid vs. DMSO), the noise score was calculated as described previously (Yvert et al. 2013).
# β-1,3-glucan synthase = system: T1, β-1,3-glucan synthase; experiment: β-1,3-glucan synthase activity in the membrane fraction; format: biochemical, S. cerevisiae BY4741; details: 25° C., 30 min
# T1 construct: membrane fraction was prepared from S. cerevisiae BY4741
# Experimental: After the membrane fraction was prepared from S. cerevisiae BY4741 as described previously (n=3) (Abe et al. 2001), β-1,3-glucan synthase activity was measured as described previously (n=3) (Inoue et al. 1995) with slight modification. Briefly, 20 μL membrane fraction (˜70 μg total protein) was added to a reaction mixture (final volume of 100 μL) containing 50 mM Tris·HCl, pH 7.5, 10 mM potassium fluoride, 1 mM EDTA, 0.2 mM UDP-Glc (with 89 Bq UDP-[Glucose-14C]; NEC403; PerkinElmer), and different concentrations of poacic acid (1.25, 2.5, 5, 10, 20, 40, 80, 160, or 320 μg/mL). The reaction mixture was incubated at 25° C. for 30 min and stopped by the addition of ethanol. To trap reaction product (β-1,3-glucan polymer), the reaction mixture was filtered through the membrane filter (mixed cellulose esters; 0.2 μm in pore size; ADVANTEC), washed one time with 2 mL distilled water, and dried at room temperature. After addition of scintillation mixture (Econofluor-2; PerkinElmer), radioactivity was measured by a scintillation counter (LSC-6100; Aloka) Inhibition curves and IC50 values were determined using R software (ver. 3.0.1) by sigmoidal curve fitting with the glm function.
# Saccharomyces cerevisiae = experiment: Synergy screening; format: cell-based
# Experimental: To test for synergy, a 6×6-dose matrix was initially used to identify potentially synergistic dose combinations, and these points were then confirmed in triplicate. Cultures (200 μL) were grown with combinations of poacic acid (125 μg/mL), caspofungin (12.5 ng/mL), and fluconazole (3.8 μg/mL), and the ODs of relevant single-agent and solvent controls were measured after 24 h. Synergy was determined by comparing actual OD in the presence of compound combinations with an expected value calculated using the multiplicative hypothesis. This method assumes that, in the absence of an interaction, each compound would decrease the OD of the cell culture by the same fraction in the presence of the other compound as it does when applied alone (that is, E=A×B/C, where E is the expected OD, A is OD when compound A is applied alone, B is OD when compound B is applied alone, and C is OD of the control culture (DMSO). In the presence of synergy, the actual OD value is lower than the expected OD. A paired t test was used to confirm statistical significance of this difference in three replicates of the experiment.
compound,measurement,setting,value
"COc1cc(/C=C/c2cc(/C=C/C(=O)O)cc(OC)c2O)ccc1O [poacic acid, (E)-4-Hydroxy-3-{2-[(E)-4-hydroxy-3-methoxystyryl]}-5-methoxycinnamic acid]",resistance compared with the control strain,[1]; PAr mutant with SNP in SUR1,increased resistance
same,colony formation on agar,"[1]; spontaneous chain-termination mutant in SUR1, agar with 500 μg poacic acid/mL",able to form colonies
same,bud neck size,"[2]; 0-125 μg/mL, 16 h",dose-dependent increase in bud neck size
same,heterogeneity of cell morphology,"[2]; 0-125 μg/mL, 16 h",heterogeneous morphologies
same,inhibition at 125 µg/mL,"[2]; Saccharomyces cerevisiae, read-out: growth inhibition rates",10%
same,morphological correlation with other cell wall-affecting compounds,"[2]; vs micafungin, echinocandin B and other cell wall-affecting compounds",lower morphological correlations
same,"IC50 (β-1,3-glucan synthase activity in vitro)","β-1,3-glucan synthase",31 µg/mL
same,synergy with methyl methanesulfonate (MMS),Saccharomyces cerevisiae,not synergistic
same,synergy with caspofungin,"Saccharomyces cerevisiae; poacic acid 125 μg/mL + caspofungin 12.5 ng/mL, 24 h, P<0.05",significant synergistic effects
same,synergy with fluconazole,"Saccharomyces cerevisiae; poacic acid 125 μg/mL + fluconazole 3.8 μg/mL, 24 h, P<0.01",significant synergy
same,synergy with staurosporine,Saccharomyces cerevisiae; poacic acid 125 μg/ml + staurosporine 100 ng/ml,synergy
